Assay results from patent US5244918A, “Benzofuran derivative and pharmaceutical comprising the same as active ingredient” (Meiji Milk Products Co., Ltd., priority 1989, dated 1993).
Like-named read-outs stand apart in the source and are kept apart here.

Assays:
5-lipoxygenase = biological target: T1, 5-lipoxygenase (Rattus norvegicus, UniProt P12527); assay: 5-Lipoxygenase inhibitive activity (production of 5-HETE by RBL-1 cell supernatant); assay type: biochemical; conditions: for IC50: inhibition of 5-HETE production, 37° C., 10 minutes, 100 μM arachidonic acid
T1 construct: ultracentrifugation at 100,000×g for 90 minutes to collect a supernatant, which was served as a 5-lipoxygenase enzyme liquid; host or cells: RBL-1 (rat basophilic leukemia cells), 100,000×g supernatant of sonicated cells
T1 sequence (P12527 1-673): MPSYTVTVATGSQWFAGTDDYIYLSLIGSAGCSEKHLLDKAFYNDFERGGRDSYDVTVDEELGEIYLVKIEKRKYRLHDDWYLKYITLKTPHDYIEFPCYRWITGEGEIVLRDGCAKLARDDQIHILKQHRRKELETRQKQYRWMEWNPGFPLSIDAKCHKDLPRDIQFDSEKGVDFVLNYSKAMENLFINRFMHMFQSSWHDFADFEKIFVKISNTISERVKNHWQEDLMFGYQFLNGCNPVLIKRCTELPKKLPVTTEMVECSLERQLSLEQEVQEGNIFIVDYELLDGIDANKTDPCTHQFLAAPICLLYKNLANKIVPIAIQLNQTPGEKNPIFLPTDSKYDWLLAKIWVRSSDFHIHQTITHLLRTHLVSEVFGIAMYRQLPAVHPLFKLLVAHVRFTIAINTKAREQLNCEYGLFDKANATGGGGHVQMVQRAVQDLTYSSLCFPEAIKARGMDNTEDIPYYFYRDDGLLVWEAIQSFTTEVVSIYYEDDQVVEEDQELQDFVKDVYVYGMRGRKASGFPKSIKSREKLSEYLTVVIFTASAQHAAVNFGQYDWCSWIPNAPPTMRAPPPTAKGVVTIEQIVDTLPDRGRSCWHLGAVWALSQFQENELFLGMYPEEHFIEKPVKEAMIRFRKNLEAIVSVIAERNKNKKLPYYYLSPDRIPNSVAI
Protocol: 2.5×10^7 RBL-1 cells (rat basophilic leukemia cells, purchased from Dainippon Pharmaceutical Co. Ltd.) were washed twice with 0.1M Tris-HCl buffer (pH 7.5) and ultrasonicated. The pulverized cell liquid was subjected to ultracentrifugation at 100,000×g for 90 minutes to collect a supernatant, which was served as a 5-lipoxygenase enzyme liquid in the test. […] After terminating the reaction by an addition of 50 μl of 1N HCl, the reaction mixture was extracted with 6 ml of ethyl acetate.

SRS-A production [1] = conditions: Prostaglandins 26, 955-973 (1983); read-out: 50% inhibition concentration (known agent, literature); cited from earlier work
[2] = test system: auricle edema induced with arachidonic acid; assay: Auricle edema inhibitive activity in mice (induced with arachidonic acid); assay type: in vivo, mouse (ICR male); conditions: topical
Protocol: In vivo anti-inflammatory action of Compound 1 was tested using auricle edema in mice as a model.
ICR male mice (Japan Charles River), weighing 29.9-40.4 g, 8 week age, were anesthetized with pentobarbital (Trademark: Nembutal, manufactured by Dainabott-Dainippon Pharmaceutical Co., Ltd.) to measure the thickness of the right ear with a dial thickness gauge. 20 μl of Compound 1 and control compound (acetone) were applied (the amount hereinafter specified) to the inside of the right ear with microsyringe, and, 30 minutes later, 2 mg of arachidonic acid was applied in the same manner to the inside of the right ear. The thickness of the right ear was measured 60 minutes after the application of arachidonic acid. Mice were then sacrificed by vertebral cervical dislocation and a circle with a diameter of 7 mm was cut out from the center of the right ear with an ear punch to measure its weight. The test was performed twice; the amounts of Compound 1 applied were 4 mg, 1 mg, 0.4 mg, 0.04 mg, and 0.004 mg per ear for the first test and 1 mg, 0.2 mg, 0.04 mg, 0.008 mg, and 0.0016 mg per ear for the second test. Both Compound 1 and arachidonic acid were used as dissolved in acetone.
The results are shown in FIG. 8-1 (the first test) and FIG. 8-2 (the second test). […] The 50% effective dose (ED50) in the two experiments were very close to each other, 0.03-0.08 mg/ear.

mice = assay: Single administration toxicity test in mice; conditions: mouse, in vivo
Protocol: Compound 1 was intravenously or intraperitoneally administered one time to groups of ICR male mice (age: 5 weeks, purchased from Japan SLC Co.), each group consisting of 5, to observe the death of the mice in 14 days. […] Thus, the fatal dose of Compound 1 in single intravenous administration to mice was above 20 mg/kg. […] The fatal dose of Compound 1 in single intraperitoneal administration to mice was about 100 mg/kg or more.

SRS-A production [3] = assay: SRS-A production inhibitive activity (sensitized guinea pig lung fragments, ileum bioassay); assay type: cell-based, guinea pig (Hartley male)
Protocol: LTC4 and LTD4 which consist of SRS-A are very strong chemical mediators of allergic bronchial asthma and the like. The inhibitory effect of Compound 1 against the production of SRS-A was therefore biologically measured.
A suspension of 1 mg of egg white albumin and 0.5 ml of complete Freund's adjuvant was intraperitoneally injected to Hartley male guinea pigs. The same antigen liquid was again injected 2 or 3 weeks thereafter to effect the sensitization. The sensitized guinea pigs were sacrificed by bleeding, and the lung was washed with a Tyrode's solution and cut into pieces to prepare lung fragment specimens. 300 mg of the lung fragments were floated on 2.8 ml of the Tyrode's solution. After shaking the solution at 37° C. for 20 minutes, 0.1 ml of Compound 1 was added. Shaking this solution was carried out for a further 5 minutes, followed by the addition of 0.1 ml of an egg white albumin solution (the ultimate antigen concentration: 1 mg/ml). After the reaction at 37° C. for 20 minutes, 12 ml of methanol was added and the mixture was stirred. The reaction mixture was centrifuged, the supernatant was concentrated under reduced pressure to dryness, and the dry solid was dissolved into 1 ml of water to biologically measure LTs (SRS-A) contained therein.
The determination of the quantity of SRS-A produced was carried out by using the ileum enucleated from Hartley male guinea pigs and counting the constriction of the ileum in the presence of 10^-6 M Atropine and Pyrilamine. A standard curve for the standard sample was prepared based on LTD4 to determine the amount of SRS-A produced by the effect of Compound 1 as the amount of LTD4.

edema in paws of rats = assay: Edema inhibitive activity in rat soles (arachidonate-induced paw edema); assay type: in vivo, rat (Wister male); conditions: 200 mg/kg oral
Protocol: In vivo anti-inflammatory action of Compound 1 was tested using edema in paws of rats as a model.
Wister male rats (Japan Charles River), weighing 150-170 g, 6 week age, were fasted from the previous day of the test for serving to the experiment.
Samples (10 ml/kg) were orally administered to the control (solvent: 0.5% gum arabica) group and Compound 1 (200 mg/kg body weight) test group. After 2 hours, 100 μl of a sodium arachidonate solution (5 mg/ml, 0.1M carbonate buffer, pH 8.4) was injected in the paw to determine the increase of the edema volume after 1 hour. The increase of the edema volume was determined by subtracting the value measured 1 hour before the administration of arachidonate from the value measured 1 hour after the administration. The foot volume increase (ml, means±S.D.) in the control group was 0.822±0.131 (n=10), whereas that in Compound 1 test group was 0.664±0.104 (n=8).

2-(1,3-pentadienyl)-2,3-dihydro-5-hydroxy(or methoxy)-7-methoxy(or hydroxy)benzofuran [Compound 3]
IC50 (5-lipoxygenase): 1500 nM

CC1=C(C)C(=O)C(CCCCC#CCCCC#CCO)=C(C)C1=O [AA-861]
IC50 (SRS-A production [1]): 1800 nM

C/C=C/C=C/C1Cc2cc(O)cc(O)c2O1 (stereo not drawn) [Compound 1, 2-(1-tans, 3-trans-pentadienyl)-2,3-dihydro-5,7-dihydroxybenzofuran]
50% effective dose (ED50) ([2]; inside of right ear, 30 min before 2 mg arachidonic acid, two experiments): 0.03-0.08 mg/ear | inhibitory effect against auricle edema (in words) ([2]; ear thickness and weight, FIG. 8-1, 8-2): dose dependent inhibitory effect | death of mice, intraperitoneal (mice): no death in the mice occurred | fatal dose, single intraperitoneal administration (mice; ip): ≥ 100 mg/kg | fatal dose, single intravenous administration (mice; iv): above 20 mg/kg | death of mice, intravenous (mice; iv, 20 mg/kg): no mice were dead | general conditions, body weight and autopsy, intravenous (mice; iv, 20 mg/kg): No abnormality was observed | 5-lipoxygenase inhibitory activity (in words) (5-lipoxygenase): specific 5-lipoxygenase inhibitory activity | IC50 (5-lipoxygenase): 2000 nM | SRS-A inhibitory effect compared with AA-861 (in words) (SRS-A production [3]; AA-861: 1.8×10^-6 M (literature)): equivalent to a known 5-lipoxygenase inhibitory agent, AA-861 | IC50 (SRS-A production [3]; Cavia porcellus, 20 min, sensitized guinea pig lung fragments, egg white albumin 1 mg/ml, 37° C., 20 min, read-out: 50% inhibition concentration, SRS-A production): 4000 nM | SRS-A production inhibitory effect (in words) (SRS-A production [3]; guinea pig lung): dependent on the concentration | foot volume increase (means±S.D.) (edema in paws of rats; 2 h before arachidonate, 1 h after, n=8, control 0.822±0.131 (n=10)): 0.664 ± 0.104 mL | edema inhibitory effect (edema in paws of rats; versus control group): 19.2%

CCCCCC1Cc2cc(O)cc(O)c2O1 (centres unmarked) [Compound 2, 2-n-pentyl-2,3-dihydro-5,7dihydroxybenzofuran]
IC50 (5-lipoxygenase): 1200 nM
